Compared with `CN1C(=O)[C@@H](NC(=O)c2ccccc2I)N=C(c2ccccc2)c2ccccc21`, `CN1C(C(=O)Nc2ccccc2)=C(O)c2ccc3ccccc3c2S1(=O)=O` is higher in melting point: 115 to 120 °C for the first, 273 to 274 °C for the second.

First: O=C1CCC(O)(c2ccc(Cl)c(Cl)c2)CN1Cc1ccccc1 (stereo unspecified)
Second: O=C(CN1CCC(Cc2ccccc2)CC1)Nc1ccc2[nH]cnc2c1
The melting point of the first is lower: 128 °C for the first, 185 to 189 °C for the second.

First: COc1cc(O)c(C(=O)C=Cc2ccc(Cl)cc2)c(OC)c1
Second: Cc1cc(Cl)c(C(=O)c2ccc(Cl)cc2)c(Cl)c1
The melting point of the first is higher: 167 °C for the first, 112 to 114 °C for the second.

Compared with `Cc1nc2c3c(c(C(N)=O)cc2n1C)CCC1(Cc2ccccc2C1)N3`, `CCOC(=O)Cc1ccc2c(c1)C(=O)c1ccccc1CN2` is lower in melting point: 272 to 273 °C for the first, 98 to 100 °C for the second.

Compared with `O=C1CCC(N2Cc3c(OCc4ccc(CN5CCN(S(=O)(=O)c6ccccc6)CC5)cc4)cccc3C2=O)C(=O)N1` (stereo unspecified), `O=C1C(=O)N(CCCN2CCN(C3c4ccccc4CCc4ccccc43)CC2)c2ccccc21` is lower in melting point: 220 to 222 °C for the first, 159 to 162 °C for the second.

First: O=c1c2c(N3CCNCC3)cc(Cl)cc2n(Cc2ccccc2)c(=O)n1CCCc1ccccc1
Second: CN1CCN(CCn2c3ccccc3c(=O)c3ccccc32)CC1
The melting point of the first is lower: 62 to 68 °C for the first, 156 to 157 °C for the second.

Compared with `O=C(O)c1ccc2c(c1)C(=O)c1cc(C(=O)O)ccc1S2(=O)=O`, `CC(C)(C)C1=CC(=CC#Cc2ccc(C(=O)O)cc2)C=C(C(C)(C)C)C1=O` is lower in melting point: 372 to 375 °C for the first, 216 to 218 °C for the second.

First: CSc1ccc(C(C)C)c(NC(=O)CN2CCN(CCSc3nc4ccccc4o3)CC2)c1C(C)C
Second: Cc1ccc(SC(Cc2ccc(OCCN(C)c3nc4ccccc4o3)cc2)C(=O)O)cc1 (stereo unspecified)
The melting point of the first is higher: 148 to 150 °C for the first, 137 °C for the second.

`CC(C)(COc1ccc(CNC(=O)C2Cc3ccccc3N2S(=O)(=O)c2ccc(-c3ccccc3C(F)(F)F)cc2)cc1)C(=O)O` (stereo unspecified) and `O=C(O)Cc1ccc(CNC(=O)C2Cc3ccccc3N2S(=O)(=O)c2ccc(-c3cccc(C(F)(F)F)c3)cc2)c(F)c1` (stereo unspecified) cannot be ordered by melting point: 98 to 105 °C for the first, 99 to 105 °C for the second.

Compared with `ON=C1CCCc2c1c1cccc3c1n2CC3`, `CCOC(=O)N1CCc2nc3c(C(F)(F)F)cccc3c(C)c2CC1` is lower in melting point: 271 to 272 °C for the first, 136 °C for the second.

Compared with `COc1cc2c(cc1Nc1ncc(Cl)c(Nc3ccccc3S(=O)(=O)N3CCC(O)C3)n1)CCN(CC(C)O)CC2` (stereo unspecified), `COc1ccc(C2CNC(=O)C2)cc1OCCC(C)N1CCN(c2ccccc2)CC1` (stereo unspecified) is lower in melting point: 197 to 199 °C for the first, 88 to 90 °C for the second.

First: O=C(CC(=O)C(F)F)c1ccc(Cl)cc1
Second: Cc1cc(Cl)ccc1NC(=O)c1cccc([N+](=O)[O-])c1C(=O)NC(C)C
The melting point of the first is lower: 65 to 66.5 °C for the first, 202 to 204 °C for the second.

First: O=C(O)Cc1cc(=O)n(Cc2ccc([N+](=O)[O-])cc2)c2ccccc12
Second: CCOC(=O)N1Cc2ccccc2C(Oc2ccc([N+](=O)[O-])cc2)C1 (stereo unspecified)
The melting point of the first is higher: 208 to 210 °C for the first, 118 to 119 °C for the second.

First: CCC1(CC)C(=O)c2cc(O)c(C)c(C)c2C1=O
Second: CCOC(=O)c1c(C)nc(-c2ccccc2)nc1-c1cc([N+](=O)[O-])ccc1S(C)(=O)=O
The melting point of the first is lower: 141 to 142 °C for the first, 150 to 151 °C for the second.

First: Nc1n[nH]c(SCCCO)n1
Second: COC(=O)CSc1nc(N)c(C=O)nc1Cl
The melting point of the first is higher: 136 to 137 °C for the first, 103 to 104 °C for the second.

First: CCOC(=O)C1CN(C(=O)OCc2ccccc2)CC1=O (stereo unspecified)
Second: COc1ccc(N2C(=O)[C@@H](NC(=O)Cc3ccccc3)[C@H]2C=CC(=O)[C@@H]2CCCO2)cc1
The melting point of the first is lower: 56.6 to 59.7 °C for the first, 159 to 162 °C for the second.

First: COc1ccc(S(=O)(=O)N(C)C)c(N)c1
Second: CN(C)c1cccc2c(S(=O)(=O)Nc3ccc(Br)nc3)cccc12
The melting point of the first is lower: 59 to 64 °C for the first, 164 to 165 °C for the second.

Compared with `Oc1ccc(CCNc2ncnc3c(F)ccc(F)c23)cc1`, `CCCc1nc(C)n2[nH]c(=O)nc2c1Cc1ccc(-c2ccccc2C#N)cc1` is lower in melting point: 221 to 222 °C for the first, 215 to 216 °C for the second.

Compared with `O=C(OCC1OCCS1=O)c1ccccc1` (stereo unspecified), `COC(=O)NC1Cc2ccc([N+](=O)[O-])cc2C1O` (stereo unspecified) is higher in melting point: 70 to 72 °C for the first, 201 to 203 °C for the second.

`CC(C)Nc1nc(NN)nc(Cl)c1-c1c(F)cc(F)cc1F` and `CCOC(=O)c1cn(C2COC2)c2c(F)c(F)c(F)cc2c1=O` cannot be ordered by melting point: 143 to 150 °C for the first, 146 to 147 °C for the second.

`CCCCCCCCCCCCCCCCCCOCC(CO)NC(C)=O` (stereo unspecified) and `CCCCCCCCCCCCCCCCCCOc1ccc(O)c(C(=O)N(N)C(=O)OCCCCCCCC)c1` cannot be ordered by melting point: 82 to 85 °C for the first, 85 °C for the second.

Compared with `COc1cc2nccc(N3CCN(C(=O)Nc4ccc(Oc5ccccc5)cc4)CC3)c2cc1OC`, `COc1cc(OCc2ccccn2)ccc1/C=C/C(=O)CC(=O)/C=C/c1cc2ccccc2[nH]1` is lower in melting point: 204 to 206 °C for the first, 178 to 179 °C for the second.

First: N#CC1CN1C(=O)NC(=O)C(Cl)(Cl)Cl (stereo unspecified)
Second: CC(CNC(=O)CN1C(=O)CCC1C)N1CCCCC1 (stereo unspecified)
The melting point of the first is higher: 150 to 152 °C for the first, 111 to 112 °C for the second.

First: COc1cc(CSCCC(=O)SCc2cc(OC)c(OC)c(OC)c2)cc(OC)c1OC
Second: CCOC(=O)c1c(Cn2cnnc2)nc2cc(OC)c(OC)cc2c1-c1ccc(OC(C)C)c(OC)c1
The melting point of the first is lower: 88 to 89 °C for the first, 178 to 179 °C for the second.

First: CCCC(=O)c1cnc2c(OC)cccc2c1Nc1c(C)cc(O)cc1C
Second: CCOCCOc1cc(C)c(-c2cccc(COc3ccc(C=CC(=O)OC)cc3)c2)c(C)c1
The melting point of the first is higher: 247 to 248 °C for the first, 69 °C for the second.

First: COc1ccc(Cl)cc1NC(=O)[C@H]1[C@H](c2ccc(Cl)cc2)C1(C)C (relative stereo)
Second: CCCCCCCCCOc1cc(C(=O)Nc2c(Cl)cncc2Cl)ccc1OC
The melting point of the first is higher: 162 to 164 °C for the first, 151 to 153 °C for the second.

Compared with `O=C(O)c1cc(-c2ccccc2S(=O)(=O)NCCO)c2ccc3c(-c4ccccc4S(=O)(=O)NCCO)cc(C(=O)O)nc3c2n1`, `CCCCCCCCOc1ccc2c(c1)C(=O)c1cc3ccccc3cc1C2=O` is lower in melting point: > 300 °C for the first, 127 to 129 °C for the second.

Compared with `Cc1ccc(C(CC(=O)O)C(C#N)c2cccnc2)cc1` (stereo unspecified), `O=C(O)CCSCc1nccc2ccccc12` is lower in melting point: 185 to 187 °C for the first, 126 to 130 °C for the second.

Compared with `CCn1c(=O)c2[nH]c(/C=C/c3cc(OC)cc(OC)c3)nc2n(CC)c1=O`, `COCCOc1cc(N(C)S(=O)(=O)c2cccs2)c2[nH]c(C3=NCC(CCO)S3)cc2c1` (stereo unspecified) is lower in melting point: > 270 °C for the first, 122 to 123 °C for the second.

First: O=C1CSC(=S)N1N=c1sc2ccc(Cl)cc2s1
Second: CN1C(=O)C=C(c2ccc3c(c2)OCO3)C1=O
The melting point of the first is higher: 312 to 314 °C for the first, 210 to 215 °C for the second.

First: Clc1cc(N2CCCC2)nc(Cl)n1
Second: COc1cc2nc(N3CCN(c4nc5c([nH]4)CCCCC5)CC3)nc(N)c2cc1OC
The melting point of the first is lower: 100 to 104 °C for the first, > 250 °C for the second.

`CCOC(=O)CCCn1ccnc1CSc1ccc(N)cc1` and `CCOC(=O)c1c(C(C)C)c(-c2ccc(F)cc2)cn1CC` cannot be ordered by melting point: 74 to 75 °C for the first, 74 to 76 °C for the second.

First: COc1cc(N)c(Cl)cc1C(=O)N[C@H]1CCNC[C@H]1OC (relative stereo)
Second: COC(=O)C1=NNC(C)=C(C(=O)OC)C1c1cc([N+](=O)[O-])ccc1Cl (stereo unspecified)
The melting point of the first is lower: 184 °C for the first, 193 to 194 °C for the second.

First: S=C(NCCCN1CCN(Cc2ccc(Cl)cc2)CC1)NC1CCCCC1
Second: O=C(NCc1ccc(O)cc1)C12CC3CC(CC(C3)C1)C2
The melting point of the first is lower: 127 to 128 °C for the first, 196 to 198 °C for the second.

First: Cc1noc(NS(=O)(=O)c2ccc(Nc3ccc([N+](=O)[O-])cc3[N+](=O)[O-])cc2)c1C
Second: Cc1ccc(-c2[nH]c(-c3ccc([N+](=O)[O-])cc3)nc2C(=O)Nc2nccs2)cc1
The melting point of the first is lower: 187 °C for the first, 256 to 258 °C for the second.

First: CCCCCCCNC(=O)Nc1ccccc1C(=O)N1CCN(C(c2ccccc2)c2ccccc2)CC1
Second: Cc1ccccc1-c1ccc(C(=O)N2Cc3ccc(C(=O)NCc4cccc(C(F)(F)F)c4)n3Cc3ccccc32)cc1C
The melting point of the first is lower: 125 to 127 °C for the first, 171 to 173 °C for the second.

First: CON(Cc1ccc(C(=O)OC(C)(C)C)cc1)C(=O)C1=C(O)C(=O)N(C)C1
Second: CCNC(=O)c1ccccc1N(C)C(C)(C)C
The melting point of the first is higher: 157 to 160 °C for the first, 45 to 48 °C for the second.

Compared with `COC(=O)c1nc(N)sc1CCC(C)C`, `COC(=O)c1c(C(=O)NC(C)(C(N)=O)C(C)C)cccc1[N+](=O)[O-]` (stereo unspecified) is lower in melting point: 108 to 110 °C for the first, 100 to 107 °C for the second.

Compared with `COC(=O)/C=C/c1ccc2c(c1)nc(N)c1ncn(CC(C)(C)O)c12`, `CNC(=S)NS(=O)(=O)c1cc(CCNC(=O)/C=C/c2cccs2)ccc1OCCOC(F)(F)F` is lower in melting point: > 250 °C for the first, 161 to 163 °C for the second.

First: N#Cc1cnc2cc(C=O)sc2c1Cl
Second: ON=Cc1ccc(Cl)c(I)c1
The melting point of the first is higher: 188 to 189 °C for the first, 97 to 99 °C for the second.

First: Cc1cc(C(=O)Nc2ccc(SC(F)(F)F)c(Cl)c2)c(O)c(C23CC4CC(CC(C4)C2)C3)c1
Second: CCOc1ccc(-c2ccc3c(c2)C=C(C(=O)Nc2ccc(CN(C)C4CCOCC4)cc2)CCS3(=O)=O)cc1Cl
The melting point of the first is higher: 205 to 206 °C for the first, 201 to 204 °C for the second.

`COc1cc(OC)c(F)c(N2Cc3cnc(S(C)=O)nc3N(C3CC3)C2=O)c1F` (stereo unspecified) and `CCc1ccc2c(c1)cc(C(=O)Nc1nc(-c3c(OC)cc(C)cc3OC)n(CCC3CCCCC3)n1)n2CC(=O)O` cannot be ordered by melting point: 198 to 200 °C for the first, 198 °C for the second.

`CN(C(=O)OC(C)(C)C)C(S)=NC(=O)OC(C)(C)C` and `Cc1ccc(S(=O)(=O)N(Cc2cc(C(C)(C)C)c(O)c(C(C)(C)C)c2)c2cccnc2Cl)cc1` cannot be ordered by melting point: 118 °C for the first, 117 to 119 °C for the second.

Compared with `CSCOc1ccc(-c2coc3ccc(-c4nnc(C)o4)cc23)cc1`, `Cc1oc(-c2ccco2)nc1COc1cc(CCl)ccn1` is lower in melting point: 116 to 117 °C for the first, 107 to 108 °C for the second.

First: CCCc1c(OCCOCCOc2c(C(C)=O)ccc(OCCCCCC(=O)O)c2CCC)ccc(C(C)=O)c1O
Second: CCCCCCCCCCCCOC(=O)NS(=O)(=O)Nc1c(OC)cc(OC)cc1OC
The melting point of the first is lower: 55 to 57 °C for the first, 133 to 136 °C for the second.

First: CCCCCCCCCCCCC(=O)NN
Second: COc1ccc(CCNC(=O)C(F)(F)F)c2c1NC(=O)C2
The melting point of the first is lower: 101 to 104 °C for the first, 175 to 178 °C for the second.

First: Nc1nnc(C(F)(F)C(Cl)Cl)s1
Second: Cc1cc(NC(=O)c2[nH]c(C)c(-c3nc4ccc(C(=O)c5ccccc5)cc4[nH]3)c2C)no1
The melting point of the first is lower: 181 to 182 °C for the first, 271 to 273 °C for the second.

First: CC(=O)NCC1CN(c2ccc(N3CCN(C(=O)COC(C)=O)CC3)c(F)c2)C(=O)O1 (stereo unspecified)
Second: O=[N+]([O-])c1ccc2c(c1)S(=O)(=O)N=C(NC1CCC1)N2
The melting point of the first is lower: 199 to 201 °C for the first, 298 to 301 °C for the second.

Reference: a melting point compilation (Tetko et al.; mined from patent text by program, amines drawn as free bases though some values may be those of a salt)
